Experiments:
[1] = biological target: human adenosine A1 receptor (Homo sapiens (Human), UniProt P30542); experiment: Adenosine receptor inhibition binding assay, [3H]DPCPX, A1 receptor membranes; conditions: 1 nM [3H]DPCPX, 25° C., 1 h, Ki from IC50 by Cheng-Prusoff; for Ki: read-out: A1 pKi (converted)
Protocol: (§1) Inhibition binding assays were performed using 0.2 µg of membranes prepared from HEK293 cells infected with BacMam human adenosine A2A receptor or 1.4 µg of membranes prepared from HEK293 cells infected with BacMam human adenosine A1 receptor. Membranes were incubated in 50 mM Tris-HCl (HEK293-hA2A; pH 7.4) or 50 mM Tris-HCl, 100 mM NaCl, 10 mM MgCl2 (CHO-hA1; pH 7.4) in the presence of varying concentrations of test compound and 1 nM [^3H]ZM241385 (HEK293-hA2A) or [^3H]DPCPX (CHO-hA1) at 25° C. for 1 h. The assay was then terminated by rapid filtration onto GF/B grade Unifilter plates using a TomTec cell harvester, followed by 5 × 0.5 ml washes with ddH2O. Nonspecific binding was defined in the presence of 1 µM CGS 15943 (HEK293-hA2A) or 1 µM DPCPX (CHO-hA1). Bound radioactivity was determined by liquid scintillation counting and inhibition curves were analysed using a four-parameter logistic equation. IC50 values were converted to Ki values with the Cheng-Prusoff equation using a KD value derived from saturation binding studies.

[2] = biological target: human adenosine A2A receptor (Homo sapiens (Human), UniProt P29274); experiment: Adenosine receptor inhibition binding assay, [3H]ZM241385, HEK293 A2A receptor membranes; conditions: 1 nM [3H]ZM241385, HEK293-hA2A membranes, 25° C., 1 h, Ki from IC50 by Cheng-Prusoff; for Ki: read-out: A2A pKi (converted)
Protocol: as §1

Sequence of human adenosine A1 receptor (P30542 whole entry): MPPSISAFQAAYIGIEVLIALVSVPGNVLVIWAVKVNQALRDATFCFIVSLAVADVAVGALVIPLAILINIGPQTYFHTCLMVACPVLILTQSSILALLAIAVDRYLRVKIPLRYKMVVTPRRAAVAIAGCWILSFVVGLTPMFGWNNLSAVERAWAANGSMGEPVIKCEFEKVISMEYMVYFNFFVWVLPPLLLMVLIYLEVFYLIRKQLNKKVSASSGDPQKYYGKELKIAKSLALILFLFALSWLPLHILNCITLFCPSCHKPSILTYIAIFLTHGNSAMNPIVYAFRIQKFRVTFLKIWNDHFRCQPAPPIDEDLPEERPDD
Sequence of human adenosine A2A receptor (P29274 whole entry): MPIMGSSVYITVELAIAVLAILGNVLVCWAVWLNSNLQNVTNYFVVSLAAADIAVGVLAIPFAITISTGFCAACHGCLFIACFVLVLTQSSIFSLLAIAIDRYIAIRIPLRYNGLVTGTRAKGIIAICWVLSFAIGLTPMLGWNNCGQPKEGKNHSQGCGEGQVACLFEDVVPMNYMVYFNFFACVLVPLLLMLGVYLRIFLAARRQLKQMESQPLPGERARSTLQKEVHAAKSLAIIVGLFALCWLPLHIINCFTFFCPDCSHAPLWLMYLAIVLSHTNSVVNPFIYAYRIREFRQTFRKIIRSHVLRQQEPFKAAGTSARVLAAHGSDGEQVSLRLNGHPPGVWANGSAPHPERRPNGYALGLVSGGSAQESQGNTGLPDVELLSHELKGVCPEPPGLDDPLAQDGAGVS

| A1 pKi [1] | A2A pKi [2] | Ki [1] | Ki [2] | SMILES |
| --- | --- | --- | --- | --- |
| 5.7 | 7.2 |  |  | Cc1cc(-c2c(-c3ccccc3)nc(N)n3c(=O)n(CCN(C)c4cn[nH]c4)nc23)cc(C)n1 [Example 3-3, 5-amino-8-(2,6-dimethyl-4-pyridyl)-2-[2-[methyl(1H-pyrazol-4-yl)amino]ethyl]-7-phenyl-[1,2,4]triazolo[4,3-c]pyrimidin-3-one] |
| 6.6 | 8.1 |  |  | Cc1cc(-c2c(-c3ccccc3)nc(N)n3c(=O)n(Cc4nnco4)nc23)cc(C)n1 [Example 1-27, 5-amino-8-(2,6-dimethyl-4-pyridyl)-2-(1,3,4-oxadiazol-2-ylmethyl)-7-phenyl-[1,2,4]triazolo[4,3-c]pyrimidin-3-one] |
| 6.4 | 8.2 |  |  | Cc1cc(-c2c(-c3ccccc3)nc(N)n3c(=O)n(C[C@H]4C[C@H](F)CN4)nc23)cc(C)n1 [Example 2-18, 5-amino-8-(2,6-dimethyl-4-pyridyl)-2-[[(2R,4S)-4-fluoropyrrolidin-2-yl]methyl]-7-phenyl-[1,2,4]triazolo[4,3-c]pyrimidin-3-one] |
|  |  | 126 nM | 0.1 nM | [2H]c1c([2H])c([2H])c(-c2nc(N)n3c(=O)n(Cc4ncoc4C)nc3c2-c2cc(Cl)nc(CO)c2)c([2H])c1[2H] [Example 1-57, 5-amino-8-[2-chloro-6-(hydroxymethyl)-4-pyridyl]-2-[(5-methyloxazol-4-yl)methyl]-7-(2,3,4,5,6-pentadeuteriophenyl)-[1,2,4]triazolo[4,3-c]pyrimidin-3-one] |
| 6.7 | 9.2 |  |  | Cc1cc(-c2c(-c3ccccc3)nc(N)n3c(=O)n(C[C@H]4CCCO4)nc23)cc(C)n1 [Example 2-16, 5-amino-8-(2,6-dimethyl-4-pyridyl)-7-phenyl-2-[[(2R)-tetrahydrofuran-2-yl]methyl]-[1,2,4]triazolo[4,3-c]pyrimidin-3-one] |
|  |  | 158 nM | 0.316 nM | [2H]c1c([2H])c([2H])c(-c2nc(N)n3c(=O)n(C[C@H]4CCCO4)nc3c2-c2cc(Cl)nc(CO)c2)c([2H])c1[2H] [Example 2-33, 5-amino-8-[2-chloro-6-(hydroxymethyl)-4-pyridyl]-7-(2,3,4,5,6-pentadeuteriophenyl)-2-[[(2R)-tetrahydrofuran-2-yl]methyl]-[1,2,4]triazolo[4,3-c]pyrimidin-3-one] |
| 6.0 | 8.7 |  |  | Cc1cc(-c2c(-c3ccccc3)nc(N)n3c(=O)n(C[C@@H]4CC(F)(F)CN4)nc23)cc(C)n1 [Example 2-11, 5-amino-2-[[(2S)-4,4-difluoropyrrolidin-2-yl]methyl]-8-(2,6-dimethyl-4-pyridyl)-7-phenyl-[1,2,4]triazolo[4,3-c]pyrimidin-3-one] |
| 6.1 | 7.4 |  |  | Cc1cc(-c2c(-c3ccccc3)nc(N)n3c(=O)n(CC4CCCN4)nc23)cc(C)n1 (centres unmarked) [Example 2-5, 5-amino-8-(2,6-dimethyl-4-pyridyl)-7-phenyl-2-(pyrrolidin-2-ylmethyl)-[1,2,4]triazolo[4,3-c]pyrimidin-3-one] |
| 6.8 | 9.9 |  |  | Cc1ocnc1Cn1nc2c(-c3cc(Cl)nc(CO)c3)c(-c3ccc(F)cc3)nc(N)n2c1=O [Example 1-59, 5-amino-8-[2-chloro-6-(hydroxymethyl)-4-pyridyl]-7-(4-fluorophenyl)-2-[(5-methyloxazol-4-yl)methyl]-[1,2,4]triazolo[4,3-c]pyrimidin-3-one] |
| 5.7 | 7.2 |  |  | Cc1cc(-c2c(-c3ccccc3)nc(N)n3c(=O)n(CCc4nnn(C)n4)nc23)cc(C)n1 [Example 1-6, 5-amino-8-(2,6-dimethyl-4-pyridyl)-2-[2-(2-methyltetrazol-5-yl)ethyl]-7-phenyl-[1,2,4]triazolo[4,3-c]pyrimidin-3-one] |
| 6.2 | 7.5 |  |  | Cc1cc(-c2c(-c3ccccc3)nc(N)n3c(=O)n(CCn4cccn4)nc23)cc(C)n1 [Example 1-1, 5-amino-8-(2,6-dimethyl-4-pyridyl)-7-phenyl-2-(2-pyrazol-1-ylethyl)-[1,2,4]triazolo[4,3-c]pyrimidin-3-one] |
|  |  | 316 nM | 0.0794 nM | [2H]c1c([2H])c([2H])c(-c2nc(N)n3c(=O)n(Cc4ncoc4C)nc3c2-c2cc(CO)nc(OC)c2)c([2H])c1[2H] [Example 1-63, 5-amino-8-[2-(hydroxymethyl)-6-methoxy-4-pyridyl]-2-[(5-methyloxazol-4-yl)methyl]-7-(2,3,4,5,6-pentadeuteriophenyl)-[1,2,4]triazolo[4,3-c]pyrimidin-3-one] |
| 6.1 | 8.4 |  |  | Cc1cc(-c2c(-c3ccc(F)cc3)nc(N)n3c(=O)n(C[C@H]4CCCO4)nc23)cc(CO)n1 [Example 2-31, 5-amino-7-(4-fluorophenyl)-8-[2-(hydroxymethyl)-6-methyl-4-pyridyl]-2-[[(2R)-tetrahydrofuran-2-yl]methyl]-[1,2,4]triazolo[4,3-c]pyrimidin-3-one] |
|  |  | 158 nM | 1.26 nM | [2H]c1c([2H])c([2H])c(-c2nc(N)n3c(=O)n(Cc4nccn4C)nc3c2-c2cc(C)nc(CO)c2)c([2H])c1[2H] [Example 1-48, 5-amino-8-[2-(hydroxymethyl)-6-methyl-4-pyridyl]-2-[(1-methylimidazol-2-yl)methyl]-7-(2,3,4,5,6-pentadeuteriophenyl)-[1,2,4]triazolo[4,3-c]pyrimidin-3-one] |
| 6.8 | 8.9 |  |  | Cc1cc(-c2c(-c3ccccc3)nc(N)n3c(=O)n(Cc4ccon4)nc23)cc(C)n1 [Example 1-13, 5-amino-8-(2,6-dimethyl-4-pyridyl)-2-(isoxazol-3-ylmethyl)-7-phenyl-[1,2,4]triazolo[4,3-c]pyrimidin-3-one] |
| 6.1 | 7.8 |  |  | Cc1cc(-c2c(-c3ccccc3)nc(N)n3c(=O)n(C4CCN(C)C4)nc23)cc(C)n1 (centres unmarked) [Example 2-3, 5-amino-8-(2,6-dimethyl-4-pyridyl)-2-(1-methylpyrrolidin-3-yl)-7-phenyl-[1,2,4]triazolo[4,3-c]pyrimidin-3-one] |
| <5.7 | 6.9 |  |  | Cc1cc(-c2c(-c3ccccc3)nc(N)n3c(=O)n(CCN4CCCC4)nc23)cc(C)n1 [Example 2-26, 5-amino-8-(2,6-dimethyl-4-pyridyl)-7-phenyl-2-(2-pyrrolidin-1-ylethyl)-[1,2,4]triazolo[4,3-c]pyrimidin-3-one] |
| 6.8 | 8.4 |  |  | Cc1cc(-c2c(-c3ccccc3)nc(N)n3c(=O)n(Cc4c(C)ncn4C)nc23)cc(CO)n1 [Example 1-44, 5-amino-2-[(3,5-dimethylimidazol-4-yl)methyl]-8-[2-(hydroxymethyl)-6-methyl-4-pyridyl]-7-phenyl-[1,2,4]triazolo[4,3-c]pyrimidin-3-one] |
|  |  | 501 nM | 1 nM | [2H]c1c([2H])c([2H])c(-c2nc(N)n3c(=O)n(C[C@H]4CCCO4)nc3c2-c2cc(C)nc(CO)c2)c([2H])c1[2H] [Example 2-30, 5-amino-8-[2-(hydroxymethyl)-6-methyl-4-pyridyl]-7-(2,3,4,5,6-pentadeuteriophenyl)-2-[[(2R)-tetrahydrofuran-2-yl]methyl]-[1,2,4]triazolo[4,3-c]pyrimidin-3-one] |

Source: patent publication US20230271964A1, “5-AMINO-8-(4-PYRIDYL)-[1,2,4]TRIAZOLO[4,3-C]PYRIMIDIN-3-ONE COMPOUNDS FOR USE AGAINST CANCER” (ASTRAZENECA AB, priority 2020, published 2023)
